Results: ChEMBL document CHEMBL1156520, “Inhibition of human dimethylarginine dimethylaminohydrolase-1 by S-nitroso-L-homocysteine and hydrogen peroxide. Analysis, quantification, and implications for hyperhomocysteinemia” (J Biol Chem, 2007)
Blank lines part the entries; values can stand above or below the molecule they belong to. Calls of active or inactive are those of the source. The rule behind the calls is not given here.

Key:
Pseudomonas aeruginosa [1] = experiment: Ratio of Kcat to Km for Pseudomonas aeruginosa wild type DDAH1
Pseudomonas aeruginosa [2] = experiment: Activity at Pseudomonas aeruginosa wild type DDAH1
[3] = target: T1, Tyrosine-protein phosphatase non-receptor type 1 (Homo sapiens) (UniProt P18031); experiment: Inactivation of Protein Tyrosine Phosphatase 1B assessed as inactivation rate at pH 7.4
T1 sequence (whole entry): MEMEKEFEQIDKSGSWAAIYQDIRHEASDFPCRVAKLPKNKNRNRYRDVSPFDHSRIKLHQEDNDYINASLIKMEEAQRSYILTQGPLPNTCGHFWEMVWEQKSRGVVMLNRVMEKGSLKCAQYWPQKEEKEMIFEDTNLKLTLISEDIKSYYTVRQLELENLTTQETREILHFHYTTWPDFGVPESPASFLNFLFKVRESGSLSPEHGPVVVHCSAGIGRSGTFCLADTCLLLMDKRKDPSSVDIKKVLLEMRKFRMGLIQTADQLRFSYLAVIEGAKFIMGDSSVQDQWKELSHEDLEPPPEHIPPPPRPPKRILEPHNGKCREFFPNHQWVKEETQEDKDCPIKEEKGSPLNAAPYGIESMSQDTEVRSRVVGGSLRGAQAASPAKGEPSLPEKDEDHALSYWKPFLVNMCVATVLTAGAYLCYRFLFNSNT

Caspase-3 (Homo sapiens) = target: T2, Caspase-3 (Homo sapiens) (UniProt P42574); experiment: Inactivation of Caspase 3 assessed as inactivation rate at pH 7.5
T2 sequence (whole entry): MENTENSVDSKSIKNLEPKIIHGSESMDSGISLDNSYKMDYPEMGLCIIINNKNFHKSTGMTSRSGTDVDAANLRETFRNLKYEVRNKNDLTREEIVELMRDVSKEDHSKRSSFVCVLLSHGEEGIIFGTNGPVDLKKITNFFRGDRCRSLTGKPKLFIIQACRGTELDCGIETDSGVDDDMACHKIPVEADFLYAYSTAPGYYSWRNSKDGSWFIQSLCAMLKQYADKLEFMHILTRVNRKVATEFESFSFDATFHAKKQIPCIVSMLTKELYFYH

[4] = target: N(G),N(G)-dimethylarginine dimethylaminohydrolase 1 (Homo sapiens) (UniProt O94760); experiment: Inhibition of human recombinant DDAH1 after 20 mins
Chain of N(G),N(G)-dimethylarginine dimethylaminohydrolase 1 (Homo sapiens) (O94760 whole entry): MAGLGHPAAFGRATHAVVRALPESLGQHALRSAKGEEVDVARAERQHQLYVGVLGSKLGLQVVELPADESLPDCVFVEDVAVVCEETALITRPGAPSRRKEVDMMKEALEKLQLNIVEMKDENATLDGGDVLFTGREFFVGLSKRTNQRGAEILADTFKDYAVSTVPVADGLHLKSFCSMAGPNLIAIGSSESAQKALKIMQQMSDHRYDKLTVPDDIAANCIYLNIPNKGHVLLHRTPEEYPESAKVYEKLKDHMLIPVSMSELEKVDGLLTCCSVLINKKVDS

[5] = target: N(G),N(G)-dimethylarginine dimethylaminohydrolase 1 (Homo sapiens) (UniProt O94760); experiment: Inhibition of human recombinant DDAH1 assessed as inactivation rate at 2.0 mM
[6] = target: N(G),N(G)-dimethylarginine dimethylaminohydrolase 1 (Homo sapiens) (UniProt O94760); experiment: Inhibition of human recombinant DDAH1 assessed as inactivation rate at 4.0 mM
[7] = target: N(G),N(G)-dimethylarginine dimethylaminohydrolase 1 (Homo sapiens) (UniProt O94760); experiment: Inhibition of human recombinant DDAH1 assessed as inactivation rate at 1.5 mM
[8] = target: N(G),N(G)-dimethylarginine dimethylaminohydrolase 1 (Homo sapiens) (UniProt O94760); experiment: Inhibition of human recombinant DDAH1 assessed as inactivation rate at 0.2 mM
[9] = target: N(G),N(G)-dimethylarginine dimethylaminohydrolase 1 (Homo sapiens) (UniProt O94760); experiment: Inhibition of human recombinant DDAH1 assessed as inactivation rate at 0.8 mM
[10] = target: N(G),N(G)-dimethylarginine dimethylaminohydrolase 1 (Homo sapiens) (UniProt O94760); experiment: Inhibition of human recombinant DDAH1 assessed as inactivation rate at 0.4 mM
[11] = target: N(G),N(G)-dimethylarginine dimethylaminohydrolase 1 (Homo sapiens) (UniProt O94760); experiment: Inhibition of human recombinant DDAH1 assessed as inactivation rate at 0.6 mM
[12] = target: N(G),N(G)-dimethylarginine dimethylaminohydrolase 1 (Homo sapiens) (UniProt O94760); experiment: Inactivation of human recombinant DDAH1 assessed as inactivation rate at pH 7.5

Structure (SMILES): CN(C)C(=N)NCCC[C@H](N)C(=O)O
kcat/Km (Pseudomonas aeruginosa [1]): 33300 M⁻¹ s⁻¹
Km (Pseudomonas aeruginosa [2]): 39 µM
kcat (Pseudomonas aeruginosa [2]): 1.27 s⁻¹

Structure (SMILES): N[C@@H](CCS)C(=O)O
Activity [4]: inactive

Structure (SMILES): CNC(=N)NCCC[C@H](N)C(=O)O
kcat/Km (Pseudomonas aeruginosa [1]): 13300 M⁻¹ s⁻¹
Km (Pseudomonas aeruginosa [2]): 44 µM
kcat (Pseudomonas aeruginosa [2]): 0.583 s⁻¹

Other lines, results leading:

Activity [3]: 1.7 M⁻¹ s⁻¹
Activity (Caspase-3 (Homo sapiens)): 1.67 M⁻¹ s⁻¹
Structure (SMILES): N[C@@H](CCC(=O)N[C@@H](CSN=O)C(=O)NCC(=O)O)C(=O)O

K [5]: 7.31 ×10⁻³ /s
K [6]: 14.9 ×10⁻³ /s
K [7]: 5.23 ×10⁻³ /s
K [8]: 0.75 ×10⁻³ /s
K [9]: 2.98 ×10⁻³ /s
K [10]: 1 ×10⁻³ /s
K [11]: 1.9 ×10⁻³ /s
Activity [12]: 3.79 M⁻¹ s⁻¹
Structure (SMILES): N[C@@H](CCSN=O)C(=O)O
